For 34 molecules, melting point results are on record in a melting point compilation (Tetko et al.; mined from patent text by program, amines drawn as free bases though some values may be those of a salt).

A word on the melting point: it is the temperature of the solid-liquid transition. `CCc1nc2c(C)cc(C)nc2n1Cc1ccc(C(Cc2ccccc2)C(C(=O)O)C(=O)O)cc1` (centres undefined): the melting point lay in the range of 127 to 128 °C.
For `Cc1nnc(-c2ccc3occ(-c4ccncc4)c3c2)o1` the value was 166 to 167 °C.
Turning to `CCN1COc2cc3c(=O)n(CCc4cccc(F)c4)nnc3cc2C1=O`, the melting point was in the range of 161 to 163 °C.
Molecule `CCCCC(=O)Nc1c(C(=O)OC)cccc1[N+](=O)[O-]` gave a melting point of 61 to 62 °C.
Regarding `O=c1[nH]nc2n1-c1ccc(Cl)cc1C(c1ccccc1F)=CC2`, the melting point was in the range of 223 to 225 °C.
As for `CC(=O)NC[C@H]1CN(c2ccc(N3CC(=O)C3)c(F)c2)C(=O)O1`, the melting point was 192 to 193 °C.
On to `O=c1[nH]c2ccncc2c2nc(-c3ccco3)nn12`, for which the melting point is 312 to 313 °C.
`CCCc1cn(Cc2ccc(C(=O)OC)cc2OC)c2cc(C=C(C)C(=O)O)ccc12` came in with a melting point of 167 to 169 °C.
For `CCOCCC(=O)C1CCC2C3CCC4CC(O)CCC4(C)C3C(=O)CC12C` (centres undefined) the value was 126 to 130 °C.
Turning to `CC(C)C(S)C(=O)NC1(C(=O)NC(Cc2ccc(-c3ccoc3)nc2)C(=O)O)CCCC1` (centres undefined), the melting point lay within 52 to 55 °C.
`CC(=O)Oc1cccc(-c2cc(-c3ccncc3)c(C#N)c(=O)[nH]2)c1`: the melting point is 284 to 286 °C.
For `CCCCCCc1ccc(C=CC(=O)c2ccc(OCC=C(C)C)cc2OCC(=O)O)cc1` the value was 106 to 108 °C.
`N#Cc1c(N2CCN(C(=O)c3cccs3)CC2)c2cscc2n(-c2cccnc2)c1=O` yielded a melting point of 282 °C.
For `COc1cc2c(cc1Nc1ncc(Cl)c(Nc3ccccc3S(=O)(=O)N(C)C)n1)CCN(CCO)CC2`, the melting point was in the range of 150 to 152 °C.
As for `CC(NC(=O)C(N)Cc1ccccc1)C(N)=O` (centres undefined), the melting point lay in the range of 95 to 97 °C.
Under `O=C(c1cc(C(F)(F)F)cc(C(F)(F)F)c1)N1CCC2(CC1)C(=O)NCN2c1cccc(Cl)c1` stands 235 to 236 °C; under `CC(C)Cc1cncc(O)n1`, 130 to 131 °C.
For `CCOC(=O)c1ccc(NC(=O)C=C(c2ccccc2)c2ccc(Cl)cc2)cc1` the value was 173 to 175 °C.
Turning to `S=c1nc(-c2cccnc2Cl)[nH]n1Cc1ccccc1`, the melting point lay in the range of 155 to 156 °C.
Consider `CNC(=O)c1ccc(N2CCN(Cc3cc4c(c(OC)c3)OCC(=O)N4)CC2)c(C)c1`, for which the melting point was 234 to 235 °C.
Under `CCCCCCCCCCCCN1CCN(CCCCCCNc2cc(OC)cc3c(C)ccnc23)CC1` stands 53 to 55 °C; under `CCOC(=O)c1cn2c(n1)C=NC=C1C=CCC=C12`, 134 to 135 °C.
For `COc1cccc(/C=C/C(=O)N2CC(CCl)c3c2cc(N)c2ccccc32)c1` (centres undefined) the value was more than 200 °C; for `CCN1C[C@@H](O)[C@H](N(CCc2ccccc2)C(=O)c2ccccc2)C1` (relative stereo), 71 to 75 °C.
For `O=C1CCN(CC=Cc2ccccc2)CC1C(c1ccccc1)c1ccccc1` (centres undefined) the value was 114 to 115 °C.
Molecule `CCOC(=O)COc1cc2cc(CC)sc2c(Cl)c1Cl` returned a melting point of 67 to 68 °C.
Molecule `CCCCc1c[nH]cn1` came in with a melting point of 42 to 45 °C.
Under `COc1cc(CCCCC#CCCCC#CCO)c(O)c2ccccc12` stands 85 to 87 °C; under `COc1ccc(C(=O)CC(c2cccs2)C(C)(C)[N+](=O)[O-])cc1` (centres undefined), 90 °C; under `CCCc1c(OCC(O)CS(=O)(=O)c2ccc(CC(=O)OC)c(F)c2)ccc(C(C)=O)c1O` (centres undefined), 118 to 119 °C.
For `CC1(C)CCC(C)(C)c2cc3c(cc21)C(C)(C)CCC3(C)C` the value was 218 to 221 °C; for `O=C(Nc1cccc2c(O)cccc12)c1ccc(F)c([N+](=O)[O-])c1`, 235 to 238 °C; for `CCCc1c(OCc2cccc(C(=O)NC(C)CCCc3cccnc3)c2)ccc(C(C)=O)c1O` (centres undefined), 115 to 118 °C.
The molecule `Cc1oc(C2(C)CCCCC2)nc1CC#N` came in with a melting point of 57 to 58 °C.
